The subject of data set [1] is MV4-11. Put plainly: Cytotoxicity against human MV4-11 cells assessed as cell growth inhibition incubated for 72 hrs by Cell Titer-Glo assay. Type of data set: functional, cell-based. As to conditions: MV4-11, 72 h. Background: ATP-based viability assays read luminescence as a measure of living cells.
Data set [2] is described as follows: Selectivity index, ratio of IC50 for human L02 cells to IC50 for human MV4-11 cells. As to conditions: L02 cells and MV4-11 cells.
Data set [3] is described as follows: Cytotoxicity against human L02 cells assessed as cell growth inhibition incubated for 72 hrs by Cell Titer-Glo assay.
Data set [4] concerns MV4-11. In words: Induction of cell cycle arrest in human MV4-11 cells assessed as accumulation of cells at G0/G1 phase at 0.1 uM incubated for 24 hrs by PI staining based flow cytometry (reference value: 57.44 %). Type of data set: functional. In general terms: Flow cytometry measures light scatter and fluorescence of single cells or particles in a stream.
Data set [5] concerns MV4-11. Put plainly: Induction of apoptosis in human MV4-11 cells assessed as late apoptotic cells at 0.1 uM incubated for 24 hrs by Annexin V-FITC/PI staining based flow cytometry (reference value: 0.53 to 1.03 %). Type of data set: functional.
Data set [6] deals with MV4-11. In words: Induction of cell cycle arrest in human MV4-11 cells assessed as accumulation of cells at G2/M phase at 0.1 uM incubated for 24 hrs by PI staining based flow cytometry (reference value: 18.56 %). The class given is functional.
Data set [7] relates to MV4-11. In words: Induction of apoptosis in human MV4-11 cells assessed as necrotic cells at 0.1 uM incubated for 24 hrs by Annexin V-FITC/PI staining based flow cytometry (reference value: 0.05 to 0.24 %). The class given is functional.
In data set [8] the test system is MV4-11. In words: Downregulation of FLT-3 protein expression in human MV4-11 cells incubated for 24 hrs by Western blot analysis. The class given is functional, cell-based. As to conditions: dose 100-400 nM. A general note: In western blotting, separated proteins are transferred to a membrane and probed.
Data set [9] relates to MV4-11. In words: Induction of apoptosis in human MV4-11 cells assessed as early apoptotic cells at 0.1 uM incubated for 24 hrs by Annexin V-FITC/PI staining based flow cytometry (reference value: 0.015 to 0.39 %). Type of data set: functional.
Data set [10] deals with MV4-11. Put plainly: Induction of apoptosis in human MV4-11 cells assessed as viable cells at 0.1 uM incubated for 24 hrs by Annexin V-FITC/PI staining based flow cytometry (reference value: 98.58 to 99.04%). As to conditions: read-out: Activity. The class given is functional.
Data set [11] concerns MV4-11. In words: Induction of cell cycle arrest in human MV4-11 cells assessed as accumulation of cells at S phase at 0.1 uM incubated for 24 hrs by PI staining based flow cytometry (reference value: 27.58 %). The class given is functional.

A word on the IC50: it is the point on the concentration scale where inhibition reaches its midpoint. For the compound `COc1c(OC)c(-c2cn(CCN3CCOCC3)c3ccccc23)c(OC)c(OC)c1-c1c[nH]c2ccccc12`, in the data set on MV4-11 [1], the IC50 is 0.48 µM. Further, the selectivity ratio in [2] was over 210. The IC50 at 72 h in data set [3] was over 100 µM.

Consider `COc1c(O)c(-c2c[nH]c3ccccc23)c2c(c1-c1c[nH]c3ccccc13)OC(C)(C)C=C2`, for which the IC50 in the data set with MV4-11 [1] amounted to 1.2 µM. The selectivity ratio in [2] came to 9. Besides, in data set [3], the IC50 at 72 h amounted to 11 µM.

As to `CCOc1ccc2[nH]cc(-c3c(OC)c(OC)c(-c4c[nH]c5ccccc45)c(OC)c3OC)c2c1`, the IC50 in the data set on MV4-11 [1] was determined as 0.2 µM. The selectivity ratio in [2] is over 500. In data set [3], the IC50 at 72 h is over 100 µM.

Consider `COc1ccc2[nH]cc(-c3c(OC)c(OC)c(-c4c[nH]c5ccccc45)c(OC)c3OC)c2c1`, for which the IC50 in the data set with MV4-11 [1] worked out at 6.5 µM. For the same compound, in data set [2], the selectivity ratio is over 15. Besides, the IC50 at 72 h in [3] was over 100 µM.

As to `COc1c(OC)c(-c2c[nH]c3ccccc23)c(OC)c(OC)c1-c1c[nH]c2ccccc12`, the IC50 in the data set on MV4-11 [1] amounted to 5.9 µM. The selectivity ratio in [2] was over 17. Further, the half-maximal inhibitory concentration (IC50) at 72 h in data set [3] is over 100 µM.

In the case of `COc1c(OC)c(-c2c[nH]c3ccc(OCCN4CCOCC4)cc23)c(OC)c(OC)c1-c1c[nH]c2ccccc12`, the half-maximal inhibitory concentration (IC50) with MV4-11 [1] was determined as 0.45 µM. Besides, the selectivity ratio in data set [2] is over 220. In data set [3], the half-inhibitory concentration (IC50) at 72 h is over 100 µM.

In the case of `COc1c(OC)c(-c2c[nH]c3ccc(OCC(=O)c4ccc(Cl)c(Cl)c4)cc23)c(OC)c(OC)c1-c1c[nH]c2ccccc12`, in the data set with MV4-11 [1], the IC50 was 0.99 µM. Also, in data set [2], the selectivity ratio is over 100. The IC50 at 72 h in data set [3] was over 100 µM.

Take `COc1c(OC)c(-c2cn(C3CCCC3)c3ccccc23)c(OC)c(OC)c1-c1c[nH]c2ccccc12`: in the data set on MV4-11 [1], the 50% inhibitory concentration (IC50) was 0.84 µM. Moreover, the selectivity ratio in data set [2] was over 120. Also, the IC50 at 72 h in [3] is over 100 µM.

Turning to `COc1c(OC)c(-c2c[nH]c3ccc(OCCO[C@@H]4O[C@H](CO)[C@@H](O)[C@H](O)[C@H]4O)cc23)c(OC)c(OC)c1-c1c[nH]c2ccccc12`, the Activity with MV4-11 [4] was 52.91%; with MV4-11 [5] it was 3.67%; in the data set on MV4-11 [6] it was 17.42%; in the data set with MV4-11 [7], 0%; in the data set on MV4-11 [8], “Dose-Dependent Effect”; in the data set with MV4-11 [9], 15.78%. In addition, the Activity with MV4-11 [11] worked out at 30.68%. Further, the IC50 in the data set with MV4-11 [1] was 0.26 µM. In the data set with MV4-11 [10], the viability at 0.1 µM stood at 78%. Also, in data set [2], the selectivity ratio is over 380. The IC50 at 72 h in data set [3] is over 100 µM.

As for `COc1ccc2[nH]cc(-c3c(OC)c(OC)c(-c4c[nH]c5ccc(O)cc45)c(OC)c3OC)c2c1`, in the data set with MV4-11 [1], the 50% inhibitory concentration (IC50) is 1.3 µM. Further, the selectivity ratio in data set [2] was over 75. Also, the IC50 at 72 h in [3] was over 100 µM.

Consider `COc1c(OC)c(-c2c[nH]c3ccc(O)cc23)c(OC)c(OC)c1-c1c[nH]c2ccccc12`, for which the IC50 with MV4-11 [1] worked out at 12 µM. Also, in data set [2], the selectivity ratio was over 8. In addition, in data set [3], the IC50 at 72 h was over 100 µM.

As to `COc1c(OC)c(-c2c[nH]c3ccc(OCC(=O)c4ccccc4)cc23)c(OC)c(OC)c1-c1c[nH]c2ccccc12`, the IC50 with MV4-11 [1] is 1.3 µM. Besides, in [2], the selectivity ratio was over 74. The IC50 at 72 h in data set [3] was over 100 µM.

As for `COc1c(O)c(-c2c[nH]c3ccccc23)c(CC=C(C)C)c(OC)c1-c1c[nH]c2ccccc12`, the IC50 in the data set with MV4-11 [1] stood at 1.8 µM. In [2], the selectivity ratio stood at 9. Also, the half-maximal inhibitory concentration (IC50) at 72 h in data set [3] amounted to 17 µM.

Regarding `COc1c(OC)c(-c2c[nH]c3ccc(OC4CCCC4)cc23)c(OC)c(OC)c1-c1c[nH]c2ccccc12`, the Activity was 49.99% with MV4-11 [4]; 4.36% in the data set with MV4-11 [5]; 15.55% in the data set on MV4-11 [6]; 0% in the data set with MV4-11 [7]; “Dose-Dependent Effect” with MV4-11 [8]; 19.09% with MV4-11 [9]. The Activity in the data set with MV4-11 [11] was determined as 36.06%. In addition, the IC50 with MV4-11 [1] turned out to be 0.14 µM. Moreover, the viability at 0.1 µM with MV4-11 [10] is 74.7%. The selectivity ratio in data set [2] was over 710. Also, the IC50 at 72 h in [3] was over 100 µM.
